Laboratory results as given in patent publication US4826817A, “Amino acid and hydroxyamino acid transporter compounds for therapeutic applications, process and use” (priority 1986, dated 1989).

How the values were obtained:
[1] = Plasma and brain levels of L-tyrosine after intravenous injection to rats; format: in vivo, rat (male CD-COBS); details: rat, i.v. 1.62 mmol/kg, Table I
Text: Controls received saline.

[2] = Plasma and brain levels of L-tyrosine after intraperitoneal injection to rats; details: rat; for concentration at 0.5 h / concentration at 2 h: ip, 1620 umol/kg
Experimental: Male CD-COBS rats (Charles River, Italy) weighing 200 g were used. The animals housed under standard conditions of light-dark cycle, temperature and humidity with free access to water and food. […] Controls received saline. Rates were killed by decapitation 30 and 120 min. after treatment. Plasma and brain were rapidly removed and kept at -20° C. until assay.

Structure (SMILES)	Plasma L-tyrosine (in words) [1]	brain L-tyrosine concentrations (in words) ([1]; both intervals (30 and 120 min))	concentration at 0.5 h ([2]; brain) [ng/g]	concentration at 2 h ([2]; brain) [ng/g]	brain L-tyrosine concentrations (in words) ([2]; i.p. 1.62 mmol/kg, both intervals (30 and 120 min), Table II, L-tyrosine p<0.05, O-L-lysyl-L-tyrosine p<0.01)	concentration at 0.5 h ([2]; plasma) [ng/g]	concentration at 2 h ([2]; plasma) [ng/g]
NCCCC[C@H](N)C(=O)Oc1ccc(C[C@H](N)C(=O)O)cc1 [O-L-lysyl-L-tyrosine]	significantly raised by only 30 min. after the i.v. dose	significantly increased	–	–	–	–	–
N[C@@H](Cc1ccc(O)cc1)C(=O)O [L-tyrosine]	–	–	20200 ± 1750	21800 ± 1520	significantly increased	16900 ± 2060	12700 ± 2230
